# Values quoted from earlier work, collected in US20020177614A1, “Methods for treating nuerodegenerative diseases including alzheimer's” (priority 2001, published 2002).
# Test system: Diphtheria and Pseudomonas toxins
# Conditions: several bacterial ADP-ribosylating toxins, including Diphtheria and Pseudomonas toxins
structure (smiles),measurement,value
NC(=O)c1cccnc1 [nicotinamide],effect on bacterial ADP-ribosylating toxins,prevent or reverse the effects
